Assay results reported in patent publication US20250032524A1, “BROAD SPECTRUM AMINOGLYCOSIDES AND USES THEREOF” (REVAGENIX, INC., priority 2022, published 2025).
Where two headings read alike, the source gives them in different places.

Experiments:
Format in all cases: cell-based
Enterobacterales = assay: Antibacterial surveillance of clinical isolates (MIC50/90)
Procedure: (§1) Minimum inhibitory concentrations for representative example compounds herein were determined by a broth microdilution method in accordance with the Clinical and Laboratory Standards Institute (CLSI) guidelines. In brief, organism suspensions were adjusted to a 0.5 McFarland standard to yield a final inoculum between 3×10^5 and 7×10^5 colony-forming units (CFU)/mL. The inoculum was prepared by suspension of a colony from an agar plate that was prepared the previous day. Compound dilutions and inoculum were prepared in sterile, cation adjusted Mueller-Hinton Broth (Beckton Dickinson).
(§2) Bacteria were suspended in sterile saline and added to each assay plate to obtain a final concentration of 5×10^5 CFU/mL. An inoculum volume of 100 μL was added to wells containing 100 μL of broth with 2-fold serial dilutions of the test compound. All inoculated microdilution trays were incubated in ambient air at 35° C. for 18-24 hours. Following incubation, the lowest concentration of the compound that prevented visible growth (OD 600 nm<0.05) is recorded was the MIC. […] Performance of the assay was monitored by the use of laboratory quality-control strains and a standard compound with a defined MIC spectrum (neomycin), in accordance with CLSI guidelines.
(§3) Several compounds of the disclosure (Compound 1, 2, and 3) were further evaluated against several hundred bacterial isolates (isolated in the United States and Europe, 1:1) selected from the SENTRY Antimicrobial Surveillance Program (JMI Laboratories, North Liberty, Iowa). The set of clinical isolates included 300 randomly selected Enterobacterales, 103 randomly selected P. aeruginosa, 100 randomly selected A. baumannii-calcoaceticus, 20 randomly selected Methicillin-sensitive S. aureus (MSSA), and 30 randomly selected Methicillin-resistant S. aureus (MRSA). In addition, 101 Enterobacterales and 50 P. aeruginosa isolates with genetically defined mechanisms of aminoglycoside resistance were included. The MIC values at which ≥50% (MIC50) and ≥90% (MIC90) of isolates within a given set are inhibited were determined for each compound against each set of organisms.

P. aeruginosa [1] = assay: as above; conditions: Pseudomonas aeruginosa, 103 isolates
Procedure: as §1, §2, §3

[2] = test system: A. baumannii-calcoaceticus; assay: as above; conditions: 100 isolates
Procedure: as §1, §2, §3

[3] = test system: clinical isolates of multi-drug resistant bacterial pathogens including A. baumannii, MRSA, P. aeruginosa, and CRE; assay: MIC secondary panel, overall statement; conditions: read-out: minimum inhibitory concentration (MIC) values
Procedure: as §1, §2
Several compounds of the disclosure (Compounds 1, 2, 3, and 6) were further evaluated against a secondary panel of clinical isolates of multi-drug resistant bacterial pathogens including A. baumannii, methicillin-resistant Staphylococcus aureus (MRSA), P. aeruginosa, and carbapenem-resistant Enterobacteriaceae (CRE).

[4] = test system: all sets of organisms tested (SENTRY clinical isolates); assay: Antibacterial surveillance, overall statement; conditions: all sets of organisms tested (Table 3); read-out: MIC50,90 values
Procedure: as §1, §2
as §3, with “The MIC values at which ≥50% (MIC50) and ≥90% (MIC90) of isolates within a given set are inhibited were determined for each compound against each set of organisms.” left out

K. aerogenes = assay: MIC broth microdilution (CLSI); conditions: Klebsiella aerogenes; strain AEAE1042, MDR Clinical isolate (CDC CRE panel), CDC AR Bank 0161
In short: (§4)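 Organisms from overnight agar colonies were adjusted to 0.5 McFarland and tested in cation-adjusted Mueller-Hinton broth at a final 5×10^5 CFU/mL against 2-fold serial compound dilutions. Plates were incubated in ambient air at 35° C. for 18-24 hours; MIC was the lowest concentration preventing visible growth (OD 600 nm<0.05).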

S. aureus = assay: MIC broth microdilution (CLSI); conditions: for MIC: Staphylococcus aureus
In short: as §4

K. pneumoniae = assay: MIC broth microdilution (CLSI)
In short: as §4

E. cloacae = assay: MIC broth microdilution (CLSI); conditions: Enterobacter cloacae; strain AECL1089, MDR Clinical isolate (CDC CRE panel), CDC AR Bank 0154
In short: as §4

S. enterica = assay: MIC broth microdilution (CLSI); conditions: Salmonella enterica, read-out: Activity (MIC)
In short: as §4

A. baumannii = assay: MIC broth microdilution (CLSI); conditions: Acinetobacter baumannii
In short: as §4

P. aeruginosa [5] = assay: MIC broth microdilution (CLSI); conditions: Pseudomonas aeruginosa
In short: as §4

P. mirabilis = assay: MIC broth microdilution (CLSI); conditions: Proteus mirabilis; strain APMI1048, MDR Clinical isolate (CDC CRE panel), CDC AR Bank 0159
In short: as §4

C. freundii = assay: MIC broth microdilution (CLSI); conditions: Citrobacter freundii, read-out: Activity (MIC)
In short: as §4

E. coli = assay: MIC broth microdilution (CLSI); conditions: Escherichia coli
In short: as §4

## NCC[C@H](O)C(=O)N[C@@H]1[C@@H](O)[C@H](N)[C@@H](O[C@H]2O[C@H](CN)CC[C@H]2N)[C@H](O[C@@H]2O[C@H](CO)[C@@H](O[C@H]3O[C@@H](CN)[C@@H](O)[C@H](O)[C@H]3N)[C@H]2O)[C@H]1O [Compound 2, (S)-4-amino-N-((1R,2S,3S,4R,5R,6S)-3-amino-5-(((2S,3R,4S,5R)-4-(((2R,3R,4R,5S,6S)-3-amino-6-(aminomethyl)-4,5-dihydroxytetrahydro-2H-pyran-2-yl)oxy)-3-hydroxy-5-(hydroxymethyl)tetrahydrofuran-2-yl)oxy)-4-(((2R,3R,6S)-3-amino-6-(aminomethyl)tetrahydro-2H-pyran-2-yl)oxy)-2,6-dihydroxycyclohexyl)-2-hydroxybutanamide]
Enterobacterales
  MIC50: < 16 µg/mL
  MIC90: < 16 µg/mL
P. aeruginosa [1]; read-out: MIC50
  MIC50: < 16 µg/mL
P. aeruginosa [1]; read-out: MIC90
  MIC90: < 16 µg/mL
[2]; read-out: MIC50
  MIC50: < 16 µg/mL
[2]; read-out: MIC90
  MIC90: < 16 µg/mL
[3]
  MIC: ≤ 16 µg/mL
[4]
  MIC50: ≤ 16 µg/mL
K. aerogenes
  MIC: < 16 µg/mL
S. aureus; ATCC29213, strain NSAU001, wild-type, QC, ATCC 29213
  MIC: < 16 µg/mL
S. aureus; strain NSAU1004, MDR Clinical isolate
  MIC: < 16 µg/mL
S. aureus; strain NSAU1015, MDR Clinical isolate
  Activity (MIC): + (MIC threshold for positive activity (+) is ≤16 μg/mL)
S. aureus; strain NSAU1023, MDR Clinical isolate
  Activity (MIC): + (MIC threshold for positive activity (+) is ≤16 μg/mL)
S. aureus; strain NSAU1063, MDR Clinical isolate
  Activity (MIC): + (MIC threshold for positive activity (+) is ≤16 μg/mL)
K. pneumoniae; Klebsiella pneumoniae, strain AKPN1246, MDR Clinical isolate (CDC CRE panel), CDC AR Bank 0139
  MIC: < 16 µg/mL
K. pneumoniae; strain AKPN1250, MDR Clinical isolate (CDC CRE panel), CDC AR Bank 0143
  Activity (MIC): + (MIC threshold for positive activity (+) is ≤16 μg/mL)
K. pneumoniae; strain AKPN1253, MDR Clinical isolate (CDC CRE panel), CDC AR Bank 0148
  Activity (MIC): + (MIC threshold for positive activity (+) is ≤16 μg/mL)
K. pneumoniae; strain AKPN1255, MDR Clinical isolate (CDC CRE panel), CDC AR Bank 0153
  Activity (MIC): + (MIC threshold for positive activity (+) is ≤16 μg/mL)
E. cloacae
  MIC: < 16 µg/mL
S. enterica
  MIC: < 16 µg/mL
A. baumannii; read-out: Activity (MIC), strain NABA0007, ΔadeJK efflux
  MIC: < 16 µg/mL
A. baumannii; read-out: Activity (MIC), strain NABA1427, MDR Clinical isolate
  MIC: < 16 µg/mL
A. baumannii; read-out: Activity (MIC), strain NABA1433, MDR Clinical isolate
  MIC: < 16 µg/mL
A. baumannii; read-out: Activity (MIC), strain NABA1434, MDR Clinical isolate
  MIC: < 16 µg/mL
A. baumannii; read-out: Activity (MIC), strain NABA1436, MDR Clinical isolate
  MIC: < 16 µg/mL
A. baumannii; read-out: Activity (MIC), strain NABA1437, MDR Clinical isolate
  MIC: < 16 µg/mL
A. baumannii; read-out: Activity (MIC), strain NABA1438, MDR Clinical isolate
  MIC: < 16 µg/mL
A. baumannii; read-out: Activity (MIC), strain NABA1439, MDR Clinical isolate
  MIC: < 16 µg/mL
A. baumannii; read-out: Activity (MIC), strain NABA1448, MDR Clinical isolate
  MIC: < 16 µg/mL
A. baumannii; read-out: Activity (MIC), strain NABA1449, MDR Clinical isolate
  MIC: < 16 µg/mL
A. baumannii; read-out: Activity (MIC), strain NABA1450, MDR Clinical isolate
  MIC: < 16 µg/mL
A. baumannii; strain NABA0006, WT parent, read-out: Activity (MIC)
  MIC: < 16 µg/mL
A. baumannii; strain NABA0020, AME negative strain, read-out: Activity (MIC)
  MIC: < 16 µg/mL
P. aeruginosa [5]; read-out: Activity (MIC), strain NPAE0006, Efflux KO, Aph(3')-IIb
  MIC: < 16 µg/mL
P. aeruginosa [5]; read-out: Activity (MIC), strain NPAE0010, MexXY over-expressed, Aph(3')-IIb
  MIC: < 16 µg/mL
P. aeruginosa [5]; read-out: Activity (MIC), strain NPAE1288, MDR Clinical isolate
  MIC: < 16 µg/mL
P. aeruginosa [5]; read-out: Activity (MIC), strain NPAE1293, MDR Clinical isolate
  MIC: < 16 µg/mL
P. aeruginosa [5]; read-out: Activity (MIC), strain NPAE1299, MDR Clinical isolate
  MIC: < 16 µg/mL
P. aeruginosa [5]; read-out: Activity (MIC), strain NPAE1302, MDR Clinical isolate
  MIC: < 16 µg/mL
P. aeruginosa [5]; read-out: Activity (MIC), strain NPAE1303, MDR Clinical isolate
  MIC: < 16 µg/mL
P. aeruginosa [5]; read-out: Activity (MIC), strain NPAE1308, MDR Clinical isolate
  MIC: < 16 µg/mL
P. aeruginosa [5]; read-out: Activity (MIC), strain NPAE1310, MDR Clinical isolate
  MIC: < 16 µg/mL
P. aeruginosa [5]; read-out: Activity (MIC), strain NPAE1313, MDR Clinical isolate
  MIC: < 16 µg/mL
P. aeruginosa [5]; read-out: Activity (MIC), strain NPAE1316, MDR Clinical isolate
  MIC: < 16 µg/mL
P. aeruginosa [5]; read-out: Activity (MIC), strain NPAE1323, MDR Clinical isolate
  MIC: < 16 µg/mL
P. aeruginosa [5]; strain NPAE0001, WT Aph(3')-IIb, QC, read-out: Activity (MIC)
  MIC: < 16 µg/mL
P. aeruginosa [5]; strain NPAE0002, WT Aph(3')-IIb, read-out: Activity (MIC)
  MIC: < 16 µg/mL
P. aeruginosa [5]; strain NPAE0359, aph(3')-IIb KO (tetR), read-out: Activity (MIC)
  MIC: < 16 µg/mL
P. mirabilis
  MIC: < 16 µg/mL
C. freundii
  MIC: < 16 µg/mL
E. coli; read-out: Activity (MIC), strain AECO1225, MDR Clinical isolate (CDC CRE panel), CDC AR Bank 0118
  MIC: < 16 µg/mL
E. coli; read-out: Activity (MIC), strain AECO1226, MDR Clinical isolate (CDC CRE panel), CDC AR Bank 0119
  MIC: < 16 µg/mL
E. coli; read-out: Activity (MIC), strain AECO1227, MDR Clinical isolate (CDC CRE panel), CDC AR Bank 0128
  MIC: < 16 µg/mL
E. coli; read-out: Activity (MIC), strain NECO0003, ΔtolC
  MIC: < 16 µg/mL
E. coli; read-out: Activity (MIC), strain NECO0245, ArmA
  MIC: < 16 µg/mL
E. coli; strain NECO0001, WT QC, read-out: Activity (MIC)
  MIC: < 16 µg/mL
E. coli; strain NECO0002, WT, read-out: Activity (MIC)
  MIC: < 16 µg/mL
E. coli; strain NECO0243, empty vector, read-out: Activity (MIC)
  MIC: < 16 µg/mL
E. coli; strain NECO0244, AAC(6')-Ib, read-out: Activity (MIC)
  MIC: < 16 µg/mL
E. coli; strain NECO0289, APH(3')-Ia, read-out: Activity (MIC)
  MIC: < 16 µg/mL
E. coli; strain NECO0302, AAC(3)-IIa, read-out: Activity (MIC)
  MIC: < 16 µg/mL
E. coli; strain NECO0350, AAC(2')-I, read-out: Activity (MIC)
  MIC: < 16 µg/mL
E. coli; strain NECO0359, ANT(4')-Ia, read-out: Activity (MIC)
  MIC: < 16 µg/mL
